Test results published in ChEMBL document CHEMBL4028801, “A multifactorial approach to hepatobiliary transporter assessment enables improved therapeutic compound development” (Toxicol Sci, 2013).
Non-standard residues stand in square brackets, D forms with d. Residues, ends and D or L forms follow the SMILES beside them. dPhe(4-Cl) = N[C@H](Cc1ccc(Cl)cc1)C(=O)O; d2Nal = N[C@H](Cc1ccc2ccccc2c1)C(=O)O; dCit = NC(=O)NCCC[C@@H](N)C(=O)O; d3Pal = N[C@H](Cc1cccnc1)C(=O)O

Experiments:
Bile salt export pump = Bile salt export pump (Homo sapiens, UniProt O95342); assay: Inhibition of human BSEP overexpressed in Sf9 cell membrane vesicles assessed as uptake of [3H]-taurocholate in presence of ATP measured after 15 to 20 mins by membrane vesicle transport assay; type: ADME, cell-based
[1] = molecular target: ATP-binding cassette sub-family C member 2 (Homo sapiens, UniProt Q92887); assay: Inhibition of human MRP2 overexpressed in Sf9 cell membrane vesicles assessed as uptake of [3H]-estradiol-17beta-D-glucuronide in presence of ATP and GSH measured after 20 mins by membrane vesicle transport assay
[2] = molecular target: ATP-binding cassette sub-family C member 3 (Homo sapiens, UniProt O15438); assay: Inhibition of human MRP3 overexpressed in Sf9 insect cell membrane vesicles assessed as uptake of [3H]-estradiol-17beta-D-glucuronide in presence of ATP and GSH measured after 10 mins by membrane vesicle transport assay; type: ADME, cell-based
[3] = molecular target: T1, ATP-binding cassette sub-family C member 4 (Homo sapiens, UniProt O15439); assay: Inhibition of human MRP4 overexpressed in Sf9 cell membrane vesicles assessed as uptake of [3H]-estradiol-17beta-D-glucuronide in presence of ATP and GSH measured after 20 mins by membrane vesicle transport assay; type: ADME, cell-based
T1 sequence (O15439 whole entry): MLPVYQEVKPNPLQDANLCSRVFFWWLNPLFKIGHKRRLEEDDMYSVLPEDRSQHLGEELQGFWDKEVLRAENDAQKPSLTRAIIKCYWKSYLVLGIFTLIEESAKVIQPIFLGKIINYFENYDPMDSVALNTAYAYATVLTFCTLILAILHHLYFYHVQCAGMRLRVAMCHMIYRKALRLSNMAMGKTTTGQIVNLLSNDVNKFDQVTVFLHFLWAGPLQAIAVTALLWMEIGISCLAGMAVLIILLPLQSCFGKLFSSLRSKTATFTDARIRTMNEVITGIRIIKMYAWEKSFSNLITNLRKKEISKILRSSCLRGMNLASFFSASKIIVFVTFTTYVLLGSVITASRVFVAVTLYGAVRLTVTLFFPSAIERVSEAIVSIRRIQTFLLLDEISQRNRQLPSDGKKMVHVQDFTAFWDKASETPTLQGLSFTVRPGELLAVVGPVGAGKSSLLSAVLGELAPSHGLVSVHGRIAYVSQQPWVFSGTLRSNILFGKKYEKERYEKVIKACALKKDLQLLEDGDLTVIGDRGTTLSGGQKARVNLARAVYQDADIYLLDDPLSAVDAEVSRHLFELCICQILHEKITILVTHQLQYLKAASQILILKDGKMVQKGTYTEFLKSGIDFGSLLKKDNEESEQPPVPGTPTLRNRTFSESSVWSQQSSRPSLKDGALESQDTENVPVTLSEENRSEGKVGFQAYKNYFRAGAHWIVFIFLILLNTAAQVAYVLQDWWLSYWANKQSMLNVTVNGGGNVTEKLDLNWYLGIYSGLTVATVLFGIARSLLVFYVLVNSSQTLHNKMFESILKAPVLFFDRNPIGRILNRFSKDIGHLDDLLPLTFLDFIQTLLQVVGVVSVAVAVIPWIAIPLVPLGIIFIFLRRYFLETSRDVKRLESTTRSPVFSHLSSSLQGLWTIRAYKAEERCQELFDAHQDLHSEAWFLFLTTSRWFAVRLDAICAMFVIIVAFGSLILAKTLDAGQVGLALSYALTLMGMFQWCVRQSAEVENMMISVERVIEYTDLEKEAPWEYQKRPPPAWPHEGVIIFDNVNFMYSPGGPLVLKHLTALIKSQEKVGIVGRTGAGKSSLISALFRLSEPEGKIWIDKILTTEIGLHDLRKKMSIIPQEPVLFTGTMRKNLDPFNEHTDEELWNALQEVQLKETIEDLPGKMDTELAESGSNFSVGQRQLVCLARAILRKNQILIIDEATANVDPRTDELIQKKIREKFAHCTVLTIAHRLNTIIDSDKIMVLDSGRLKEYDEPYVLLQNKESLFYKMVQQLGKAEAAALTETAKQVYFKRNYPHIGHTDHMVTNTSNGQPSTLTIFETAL

[4] = AUC in human at 100 mg, po QD after 24 hrs; type: ADME, organism-based; set-up: time < 24 hr, dose 100 mg, route oral; details: in vivo
[5] = Drug concentration at steady state in human at 100 mg, po QD after 24 hrs; type: ADME, organism-based; details: in vivo, read-out: Css
Homo sapiens [6] = assay: Ratio of drug concentration at steady state in human at 100 mg, po after 24 hrs to IC50 for human BSEP overexpressed in Sf9 insect cells; type: ADME, organism-based; details: in vivo
[7] = AUC in human at 25 to 50 mg, po QD after 24 hrs; type: ADME, organism-based; details: in vivo
[8] = Drug concentration at steady state in human at 25 to 50 mg, po QD after 24 hrs; type: ADME, organism-based; details: in vivo, read-out: Css
[9] = Ratio of drug concentration at steady state in human at 25 to 50 mg, po QD after 24 hrs to IC50 for human BSEP overexpressed in Sf9 insect cells; type: ADME, organism-based; details: in vivo
[10] = Ratio of drug concentration at steady state in human at 25 to 50 mg, po QD after 24 hrs to IC50 for human MRP4 overexpressed in Sf9 insect cells; type: ADME, organism-based; details: in vivo
[11] = AUC in human at 0.25 mg, sc QD after 24 hrs; type: ADME, organism-based; set-up: dose 0.25 mg, time < 24 hr, route subcutaneous; details: in vivo
[12] = AUC in human at 3 mg, sc administered as single dose during early to mild follicular phase after 24 hrs; type: ADME, organism-based; set-up: dose 3 mg, time < 24 hr, route subcutaneous; details: female, in vivo
[13] = Drug concentration at steady state in human at 0.25 mg, sc QD after 24 hrs; type: ADME, organism-based; details: in vivo, read-out: Css
Homo sapiens [14] = assay: Drug concentration at steady state in human 3 mg, sc administered as single dose during early to mild follicular phase after 24 hrs; type: ADME, organism-based; details: in vivo
Homo sapiens [15] = assay: Ratio of drug concentration at steady state in human at 0.25 mg, sc QD after 24 hrs to IC50 for human BSEP overexpressed in Sf9 insect cells; type: ADME, organism-based; details: in vivo
Homo sapiens [16] = assay: Ratio of drug concentration at steady state in human at 3 mg, sc administered as single dose during early to mild follicular phase after 24 hrs to IC50 for human BSEP overexpressed in Sf9 insect cells; type: ADME, organism-based; details: in vivo
[17] = Cmax in human at 100 to 300 mg, po QD after 24 hrs; type: ADME, organism-based; details: in vivo
[18] = Drug concentration at steady state in human at 100 to 300 mg, po QD after 24 hrs; type: ADME, organism-based; details: in vivo, read-out: Css
[19] = Ratio of drug concentration at steady state in human at 100 to 300 mg, po QD after 24 hrs to IC50 for human BSEP overexpressed in Sf9 insect cells; type: ADME, organism-based; details: in vivo
[20] = Ratio of drug concentration at steady state in human at 100 to 300 mg, po QD after 24 hrs to IC50 for human MRP2 overexpressed in Sf9 insect cells; type: ADME, organism-based; details: in vivo
[21] = Ratio of drug concentration at steady state in human at 100 to 300 mg, po QD after 24 hrs to IC50 for human MRP3 overexpressed in Sf9 insect cells; type: ADME, organism-based; details: in vivo
[22] = Ratio of drug concentration at steady state in human at 100 to 300 mg, po QD after 24 hrs to IC50 for human MRP4 overexpressed in Sf9 insect cells; type: ADME, organism-based; details: in vivo
[23] = AUC in human at 0.25 to 20 mg, po QD after 24 hrs; type: ADME, organism-based; details: in vivo
[24] = Drug concentration at steady state in human at 0.25 to 20 mg, po QD after 24 hrs; type: ADME, organism-based; details: in vivo, read-out: Css
Homo sapiens [25] = assay: Ratio of drug concentration at steady state in human at 0.25 to 20 mg, po after 24 hrs to IC50 for human BSEP overexpressed in Sf9 insect cells; type: ADME, organism-based; details: in vivo
Homo sapiens [26] = assay: Ratio of drug concentration at steady state in human at 0.25 to 20 mg, po after 24 hrs to IC50 for human MRP2 overexpressed in Sf9 insect cells; type: ADME, organism-based; details: in vivo
Homo sapiens [27] = assay: Ratio of drug concentration at steady state in human at 0.25 to 20 mg, po after 24 hrs to IC50 for human MRP3 overexpressed in Sf9 insect cells; type: ADME, organism-based; details: in vivo
Homo sapiens [28] = assay: Ratio of drug concentration at steady state in human at 0.25 to 20 mg, po after 24 hrs to IC50 for human MRP4 overexpressed in Sf9 insect cells; type: ADME, organism-based; details: in vivo

Chain of ATP-binding cassette sub-family C member 2 (Q92887 whole entry): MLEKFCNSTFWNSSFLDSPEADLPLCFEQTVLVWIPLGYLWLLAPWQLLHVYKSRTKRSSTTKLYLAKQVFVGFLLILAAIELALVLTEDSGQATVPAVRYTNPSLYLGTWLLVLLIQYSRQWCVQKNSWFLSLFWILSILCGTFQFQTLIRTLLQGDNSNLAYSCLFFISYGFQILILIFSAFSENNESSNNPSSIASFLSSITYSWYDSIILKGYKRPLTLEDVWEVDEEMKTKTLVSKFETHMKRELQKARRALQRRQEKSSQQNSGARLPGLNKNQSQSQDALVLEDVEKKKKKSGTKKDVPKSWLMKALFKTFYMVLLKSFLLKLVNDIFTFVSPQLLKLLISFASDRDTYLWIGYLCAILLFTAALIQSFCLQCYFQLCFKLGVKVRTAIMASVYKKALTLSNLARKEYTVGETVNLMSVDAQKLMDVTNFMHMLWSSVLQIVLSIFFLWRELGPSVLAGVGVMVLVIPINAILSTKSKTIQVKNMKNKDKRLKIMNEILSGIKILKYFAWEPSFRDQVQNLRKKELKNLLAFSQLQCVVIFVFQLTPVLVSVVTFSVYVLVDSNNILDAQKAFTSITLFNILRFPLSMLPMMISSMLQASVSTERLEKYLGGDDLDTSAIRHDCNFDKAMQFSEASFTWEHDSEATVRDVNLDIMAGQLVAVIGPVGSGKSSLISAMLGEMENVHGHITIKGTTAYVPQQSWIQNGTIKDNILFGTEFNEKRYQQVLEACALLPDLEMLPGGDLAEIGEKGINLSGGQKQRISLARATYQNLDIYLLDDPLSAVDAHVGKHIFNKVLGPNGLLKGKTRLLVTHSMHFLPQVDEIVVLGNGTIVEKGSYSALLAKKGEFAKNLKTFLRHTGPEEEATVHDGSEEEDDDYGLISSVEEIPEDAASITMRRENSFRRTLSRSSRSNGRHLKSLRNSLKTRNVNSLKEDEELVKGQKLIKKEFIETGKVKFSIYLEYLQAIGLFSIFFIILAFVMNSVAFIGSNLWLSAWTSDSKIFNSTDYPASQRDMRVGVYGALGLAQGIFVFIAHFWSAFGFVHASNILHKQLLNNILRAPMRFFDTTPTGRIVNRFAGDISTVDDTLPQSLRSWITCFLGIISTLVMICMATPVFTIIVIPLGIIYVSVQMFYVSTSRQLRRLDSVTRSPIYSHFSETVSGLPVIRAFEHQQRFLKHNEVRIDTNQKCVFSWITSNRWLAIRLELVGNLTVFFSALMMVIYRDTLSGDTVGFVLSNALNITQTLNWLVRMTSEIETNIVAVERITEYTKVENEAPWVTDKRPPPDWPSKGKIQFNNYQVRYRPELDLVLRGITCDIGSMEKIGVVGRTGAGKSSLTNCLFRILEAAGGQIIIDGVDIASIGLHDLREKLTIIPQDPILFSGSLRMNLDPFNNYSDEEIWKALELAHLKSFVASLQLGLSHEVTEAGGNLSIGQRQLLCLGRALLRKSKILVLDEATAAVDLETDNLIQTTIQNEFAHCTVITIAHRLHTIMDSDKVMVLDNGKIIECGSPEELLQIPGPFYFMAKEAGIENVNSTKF
Chain of ATP-binding cassette sub-family C member 3 (O15438 whole entry): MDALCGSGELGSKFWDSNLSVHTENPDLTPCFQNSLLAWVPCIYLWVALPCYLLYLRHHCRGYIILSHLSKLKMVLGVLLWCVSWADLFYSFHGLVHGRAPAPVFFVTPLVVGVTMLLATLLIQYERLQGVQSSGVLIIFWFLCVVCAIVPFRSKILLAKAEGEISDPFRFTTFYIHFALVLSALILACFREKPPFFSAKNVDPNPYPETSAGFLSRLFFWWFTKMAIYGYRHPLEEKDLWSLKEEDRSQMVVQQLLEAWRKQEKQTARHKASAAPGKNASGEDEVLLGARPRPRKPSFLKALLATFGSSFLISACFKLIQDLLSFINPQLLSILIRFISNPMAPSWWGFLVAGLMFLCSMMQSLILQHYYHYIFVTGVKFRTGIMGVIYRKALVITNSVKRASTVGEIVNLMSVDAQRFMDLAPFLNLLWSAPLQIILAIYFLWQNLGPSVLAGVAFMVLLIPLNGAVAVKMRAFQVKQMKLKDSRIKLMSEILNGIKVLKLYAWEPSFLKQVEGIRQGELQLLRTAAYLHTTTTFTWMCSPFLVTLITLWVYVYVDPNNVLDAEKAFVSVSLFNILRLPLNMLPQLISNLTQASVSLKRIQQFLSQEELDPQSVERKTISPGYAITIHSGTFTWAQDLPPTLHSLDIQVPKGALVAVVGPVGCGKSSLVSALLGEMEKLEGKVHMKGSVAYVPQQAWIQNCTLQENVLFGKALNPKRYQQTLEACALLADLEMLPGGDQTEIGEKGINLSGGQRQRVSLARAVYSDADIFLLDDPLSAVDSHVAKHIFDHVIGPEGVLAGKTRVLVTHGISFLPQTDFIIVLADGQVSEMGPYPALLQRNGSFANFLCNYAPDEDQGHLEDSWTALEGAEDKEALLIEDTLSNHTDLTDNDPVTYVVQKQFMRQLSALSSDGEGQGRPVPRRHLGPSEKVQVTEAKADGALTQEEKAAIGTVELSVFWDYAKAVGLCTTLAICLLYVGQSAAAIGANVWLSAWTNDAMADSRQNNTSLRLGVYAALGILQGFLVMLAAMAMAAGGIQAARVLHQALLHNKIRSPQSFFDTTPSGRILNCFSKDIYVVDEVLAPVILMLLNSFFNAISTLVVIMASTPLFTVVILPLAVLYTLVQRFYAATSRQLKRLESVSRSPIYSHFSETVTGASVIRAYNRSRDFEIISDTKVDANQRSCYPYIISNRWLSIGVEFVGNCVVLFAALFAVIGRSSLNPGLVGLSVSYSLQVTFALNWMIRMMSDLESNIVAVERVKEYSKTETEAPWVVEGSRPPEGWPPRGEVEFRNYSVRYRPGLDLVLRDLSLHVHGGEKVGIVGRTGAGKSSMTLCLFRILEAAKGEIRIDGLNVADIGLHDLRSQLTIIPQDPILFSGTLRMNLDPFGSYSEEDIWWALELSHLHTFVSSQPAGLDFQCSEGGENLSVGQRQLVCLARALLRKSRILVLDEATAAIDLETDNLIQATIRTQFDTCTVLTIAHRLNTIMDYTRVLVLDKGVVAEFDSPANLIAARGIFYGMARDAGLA
Chain of Bile salt export pump (O95342 whole entry): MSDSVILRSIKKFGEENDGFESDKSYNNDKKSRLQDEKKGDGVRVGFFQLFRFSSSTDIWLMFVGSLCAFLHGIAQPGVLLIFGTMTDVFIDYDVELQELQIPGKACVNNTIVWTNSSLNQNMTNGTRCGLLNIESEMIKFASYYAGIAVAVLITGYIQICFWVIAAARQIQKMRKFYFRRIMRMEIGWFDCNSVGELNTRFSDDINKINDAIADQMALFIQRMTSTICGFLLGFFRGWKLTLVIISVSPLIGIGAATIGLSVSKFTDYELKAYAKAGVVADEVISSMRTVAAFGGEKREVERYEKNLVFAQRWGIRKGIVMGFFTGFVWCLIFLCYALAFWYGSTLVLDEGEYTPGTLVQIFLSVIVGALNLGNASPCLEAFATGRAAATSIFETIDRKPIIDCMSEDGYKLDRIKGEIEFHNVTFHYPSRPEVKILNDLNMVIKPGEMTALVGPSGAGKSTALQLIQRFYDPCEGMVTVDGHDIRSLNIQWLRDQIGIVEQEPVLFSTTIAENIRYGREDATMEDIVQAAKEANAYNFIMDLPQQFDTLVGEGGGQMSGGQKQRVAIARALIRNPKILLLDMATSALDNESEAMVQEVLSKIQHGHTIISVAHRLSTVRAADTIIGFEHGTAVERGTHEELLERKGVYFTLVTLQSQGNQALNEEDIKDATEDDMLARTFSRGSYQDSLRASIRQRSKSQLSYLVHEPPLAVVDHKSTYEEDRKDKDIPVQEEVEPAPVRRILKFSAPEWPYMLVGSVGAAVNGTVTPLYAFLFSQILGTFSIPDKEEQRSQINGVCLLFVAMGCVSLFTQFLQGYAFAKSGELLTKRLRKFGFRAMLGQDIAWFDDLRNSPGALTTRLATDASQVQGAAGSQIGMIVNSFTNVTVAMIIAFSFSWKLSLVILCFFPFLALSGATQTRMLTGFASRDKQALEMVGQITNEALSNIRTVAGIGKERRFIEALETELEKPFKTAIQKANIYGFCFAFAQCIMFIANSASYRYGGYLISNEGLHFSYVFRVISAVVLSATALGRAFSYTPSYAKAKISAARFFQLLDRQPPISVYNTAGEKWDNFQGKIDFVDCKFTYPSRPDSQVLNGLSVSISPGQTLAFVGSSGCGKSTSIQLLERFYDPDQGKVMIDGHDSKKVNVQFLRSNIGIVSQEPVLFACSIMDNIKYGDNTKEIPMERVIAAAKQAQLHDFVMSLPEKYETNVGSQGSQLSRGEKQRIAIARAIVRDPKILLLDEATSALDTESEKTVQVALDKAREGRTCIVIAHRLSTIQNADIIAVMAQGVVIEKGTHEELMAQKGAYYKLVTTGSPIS

In the case of COCC(=O)O[C@]1(CCN(C)CCCc2nc3ccccc3[nH]2)CCc2cc(F)ccc2[C@@H]1C(C)C.Cl, the IC50 (Bile salt export pump) is reported as 43.8 µM, the IC50 [1] is reported as greater than 133 µM and the IC50 [2] is reported as greater than 133 µM. For the same compound, the IC50 [3] was greater than 133 µM, the AUC at 24 h [4] was 17.6 µM·h and the concentration at 24 h [5] was 735 nM. The Ratio (Homo sapiens [6]) was 0.017.

Compound COc1cc(C)c(/C=C/C(C)=C/C=C/C(C)=C/C(=O)O)c(C)c1C [ACITRETIN] has an IC50 (Bile salt export pump) of 38.2 µM, an IC50 [2] greater than 133 µM and an IC50 [3] of 49 µM. The AUC at 24 h [7] was 6.13 µM·h, the concentration at 24 h [8] was 255 nM and the Ratio [9] was 0.007. For the same compound, the Ratio [10] was 0.005.

CC(=O)N[C@H](Cc1ccc2ccccc2c1)C(=O)N[C@H](Cc1ccc(Cl)cc1)C(=O)N[C@H](Cc1cccnc1)C(=O)N[C@@H](CO)C(=O)N[C@@H](Cc1ccc(O)cc1)C(=O)N[C@H](CCCNC(N)=O)C(=O)N[C@@H](CC(C)C)C(=O)N[C@@H](CCCNC(=N)N)C(=O)N1CCC[C@H]1C(=O)N[C@H](C)C(N)=O.CC(=O)O [CETRORELIX ACETATE] (Ac-[d2Nal][dPhe(4-Cl)][d3Pal]SY[dCit]LRP[dA]-NH2) showed an IC50 (Bile salt export pump) of 1.47 µM, an IC50 [1] greater than 133 µM and an IC50 [2] greater than 133 µM. The IC50 [3] was greater than 133 µM, the AUC at 24 h [11] was 0.375 µM·h and the AUC at 24 h [12] was 0.375 µM·h. The concentration at 24 h [13] was 16 nM, the Css (Homo sapiens [14]) was 16 nM and the Ratio (Homo sapiens [15]) was 0.011. It also gave a Ratio (Homo sapiens [16]) of 0.011.

With CC(C)/N=c1\cc2n(-c3ccc(Cl)cc3)c3ccccc3nc-2cc1Nc1ccc(Cl)cc1 [CLOFAZIMINE] the IC50 [1] was 10.4 µM, the IC50 [2] was 21 µM and the IC50 [3] was 44.5 µM. The Cmax [17] was 2.11 ng/mL, the concentration at 24 h [18] was 88 nM and the Ratio [19] was 0.007. The Ratio [20] was 0.008, the Ratio [21] was 0.004 and the Ratio [22] was 0.002.

CO[C@H]1C[C@@H]2CC[C@@H](C)[C@@](O)(O2)C(=O)C(=O)N2CCCC[C@H]2C(=O)O[C@H]([C@H](C)C[C@@H]2CC[C@@H](OCCO)[C@H](OC)C2)CC(=O)[C@H](C)/C=C(\C)[C@@H](O)[C@@H](OC)C(=O)[C@H](C)C[C@H](C)/C=C/C=C/C=C/1C [EVEROLIMUS] showed an IC50 (Bile salt export pump) of 2 µM, an IC50 [1] of 11.3 µM and an IC50 [2] of 84 µM. It also gave an IC50 [3] of 95 µM, an AUC at 24 h [23] of 0.561 µM·h and a concentration at 24 h [24] of 23 nM. For the same compound, the Ratio (Homo sapiens [25]) was 0.012, the Ratio (Homo sapiens [26]) was 0.002 and the Ratio (Homo sapiens [27]) was 0. The Ratio (Homo sapiens [28]) was 0.
